Like-named read-outs stand apart in the source and are kept apart here.
Key:
Assay type in all cases: biochemical
[1] = biological target: T1, TAOK2 (Homo sapiens, UniProt Q9UL54); experiment: ExpresS Diversity Kinase Profile, Cerep (LANCE): TAOK2
T1 sequence (Q9UL54 1-1235): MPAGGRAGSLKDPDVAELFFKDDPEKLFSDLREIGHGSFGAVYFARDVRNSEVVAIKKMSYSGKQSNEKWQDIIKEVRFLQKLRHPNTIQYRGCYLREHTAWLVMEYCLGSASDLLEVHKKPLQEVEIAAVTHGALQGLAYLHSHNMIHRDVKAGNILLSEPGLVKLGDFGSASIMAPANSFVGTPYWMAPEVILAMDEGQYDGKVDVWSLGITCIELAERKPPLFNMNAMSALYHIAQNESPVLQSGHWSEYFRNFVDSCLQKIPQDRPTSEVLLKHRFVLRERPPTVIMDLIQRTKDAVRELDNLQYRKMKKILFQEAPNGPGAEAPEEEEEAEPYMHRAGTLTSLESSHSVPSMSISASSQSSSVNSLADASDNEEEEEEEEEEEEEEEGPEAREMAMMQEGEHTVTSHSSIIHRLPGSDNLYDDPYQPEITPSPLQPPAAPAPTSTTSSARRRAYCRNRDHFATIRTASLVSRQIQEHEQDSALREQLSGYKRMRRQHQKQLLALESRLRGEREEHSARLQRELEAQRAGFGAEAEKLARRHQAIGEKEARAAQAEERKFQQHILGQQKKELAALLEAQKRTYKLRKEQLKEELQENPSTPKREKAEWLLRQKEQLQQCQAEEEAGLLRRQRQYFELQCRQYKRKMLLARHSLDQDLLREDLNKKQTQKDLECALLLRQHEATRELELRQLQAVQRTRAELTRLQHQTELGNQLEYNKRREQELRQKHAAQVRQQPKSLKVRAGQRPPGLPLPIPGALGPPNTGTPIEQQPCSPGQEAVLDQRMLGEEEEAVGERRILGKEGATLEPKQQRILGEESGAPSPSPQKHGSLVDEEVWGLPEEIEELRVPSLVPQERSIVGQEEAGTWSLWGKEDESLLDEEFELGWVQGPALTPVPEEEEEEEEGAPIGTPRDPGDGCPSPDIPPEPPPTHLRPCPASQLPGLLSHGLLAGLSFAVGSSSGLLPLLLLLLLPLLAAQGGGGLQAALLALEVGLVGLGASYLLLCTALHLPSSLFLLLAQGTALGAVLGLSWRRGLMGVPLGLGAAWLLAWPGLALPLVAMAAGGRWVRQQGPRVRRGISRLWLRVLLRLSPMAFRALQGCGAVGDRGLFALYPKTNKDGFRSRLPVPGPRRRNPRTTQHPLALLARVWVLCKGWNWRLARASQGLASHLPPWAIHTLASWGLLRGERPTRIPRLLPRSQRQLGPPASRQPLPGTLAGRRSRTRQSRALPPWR

[2] = biological target: PKA (Homo sapiens, UniProt P17612); experiment: ExpresS Diversity Kinase Profile, Cerep (LANCE): PKA
[3] = biological target: JNK1 (Homo sapiens, UniProt P45983); experiment: ExpresS Diversity Kinase Profile, Cerep (LANCE): JNK1
[4] = biological target: T2, IRAK4 (Homo sapiens, UniProt Q9NWZ3); experiment: ExpresS Diversity Kinase Profile, Cerep (LANCE): IRAK4
T2 sequence (Q9NWZ3 1-460): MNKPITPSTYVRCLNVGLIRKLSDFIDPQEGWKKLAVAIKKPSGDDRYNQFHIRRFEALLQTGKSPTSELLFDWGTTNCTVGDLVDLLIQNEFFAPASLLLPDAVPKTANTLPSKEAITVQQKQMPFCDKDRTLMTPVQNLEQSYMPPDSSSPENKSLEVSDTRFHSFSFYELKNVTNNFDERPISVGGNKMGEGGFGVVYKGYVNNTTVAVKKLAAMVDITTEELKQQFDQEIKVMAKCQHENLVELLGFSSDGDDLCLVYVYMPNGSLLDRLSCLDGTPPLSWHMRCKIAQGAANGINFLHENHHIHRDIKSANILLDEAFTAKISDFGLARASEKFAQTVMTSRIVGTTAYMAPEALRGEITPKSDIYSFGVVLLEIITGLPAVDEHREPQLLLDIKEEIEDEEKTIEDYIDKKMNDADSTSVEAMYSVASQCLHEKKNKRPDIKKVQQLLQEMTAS

[5] = biological target: T3, NEK2 (Homo sapiens, UniProt P51955); experiment: ExpresS Diversity Kinase Profile, Cerep (LANCE): NEK2
T3 sequence (P51955 1-445): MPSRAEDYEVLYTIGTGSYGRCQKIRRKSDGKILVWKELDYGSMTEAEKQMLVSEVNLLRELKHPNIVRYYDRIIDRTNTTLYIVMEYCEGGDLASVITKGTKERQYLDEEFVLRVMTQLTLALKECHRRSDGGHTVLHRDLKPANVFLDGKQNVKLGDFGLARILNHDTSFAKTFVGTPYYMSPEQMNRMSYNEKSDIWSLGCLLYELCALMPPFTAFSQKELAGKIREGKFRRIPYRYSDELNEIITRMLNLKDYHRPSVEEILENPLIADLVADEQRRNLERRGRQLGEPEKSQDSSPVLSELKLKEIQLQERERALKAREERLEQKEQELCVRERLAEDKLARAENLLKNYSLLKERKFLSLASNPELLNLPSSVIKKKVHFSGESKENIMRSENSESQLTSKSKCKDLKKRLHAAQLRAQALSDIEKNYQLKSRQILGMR

[6] = Flag: Interference, read-out: % Inhibition of control values, 1st measurement
[7] = Flag: Interference, read-out: % Inhibition of control values, 2nd measurement
[8] = n = 2, Flag: Interference, read-out: % Inhibition of control values, Mean

Chain of JNK1 (P45983 whole entry): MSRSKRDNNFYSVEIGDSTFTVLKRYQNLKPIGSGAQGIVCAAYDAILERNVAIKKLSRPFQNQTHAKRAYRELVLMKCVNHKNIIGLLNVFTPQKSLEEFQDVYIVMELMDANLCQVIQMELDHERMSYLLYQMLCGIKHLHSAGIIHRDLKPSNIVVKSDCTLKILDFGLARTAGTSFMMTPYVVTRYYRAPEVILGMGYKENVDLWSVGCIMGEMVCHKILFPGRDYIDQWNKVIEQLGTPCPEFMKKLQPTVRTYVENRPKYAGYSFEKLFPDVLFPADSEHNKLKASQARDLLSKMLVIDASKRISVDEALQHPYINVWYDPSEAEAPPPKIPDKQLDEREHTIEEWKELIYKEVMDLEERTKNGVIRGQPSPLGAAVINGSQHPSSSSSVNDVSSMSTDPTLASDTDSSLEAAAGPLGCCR

CN[C@@H]1C[C@H]2O[C@@](C)([C@@H]1OC)n1c3ccccc3c3c4c(c5c6ccccc6n2c5c31)C(=O)NC4 [Staurosporine, reference compound]
nHill ([1]; control): 1.6
nHill ([2]; control): > 3
nHill ([3]; control): 1.8
nHill ([4]; control): 0.7
nHill ([5]; control): 0.9

CC1(C)CCC2=C(O1)c1ccccc1C(=O)C2=O [β-Lapachone]
inhibition at 150 µM [1, 6]: 32.9%
inhibition at 150 µM [1, 7]: 33.1%
inhibition at 150 µM [1, 8]: 33%
inhibition at 150 µM [2, 6]: -10.5%
inhibition at 150 µM [2, 7]: -5.4%
inhibition at 150 µM [2, 8]: -8%
inhibition at 150 µM [3, 6]: 59.8%
inhibition at 150 µM [3, 7]: 55.6%
inhibition at 150 µM [3, 8]: 57.7%
inhibition at 150 µM ([4]; n = 2, read-out: % Inhibition of control values, Mean): 2.2%
inhibition at 150 µM ([4]; read-out: % Inhibition of control values, 1st measurement): -1.2%
inhibition at 150 µM ([4]; read-out: % Inhibition of control values, 2nd measurement): 5.6%
inhibition at 150 µM [5, 6]: 19%
inhibition at 150 µM [5, 7]: 18.4%
inhibition at 150 µM [5, 8]: 18.7%

— publication PMC6138237, “Machine intelligence decrypts β-lapachone as an allosteric 5-lipoxygenase inhibitor” (Chemical Science, 2018)
